For data set [1], the system named is MIAPaCa-2. In words: CellTiter-Blue cell growth assay, MIAPaCa-2. The format is cell-based, human. The note with it: 72 hours, Tables 11-13. As to the method: (§1) All the cell lines used in these studies were of human origin and were sourced from the American Type Culture Collection (ATCC) (Rockville, Md., USA).
(§2) The cells were cultured at 37° C. in a humidified cell culture incubator supplied with 95% air/5% CO2.
(§3) Test Article concentrations were tested in triplicates for each cell line. The CellTiter-Blue® Assay was carried out on all plates 72 hours post addition of Test Articles.
(§4) Following incubation of cells in Test Article-containing media, 10 μL of CellTiter-Blue® was added to each well and incubated with cells for up to 4 hours. Fluorescence was measured using a Spectramax Gemini XPS Fluorometer. All data were recorded and entered into Microsoft® Excel spreadsheets for interpretation.
(§5) Data collected from CellTiter-Blue® assays were plotted as dose response curves for IC50 determination, and as isobolograms to assess the type of interaction between Test Article combinations. For IC50 determinations, growth inhibition was calculated and plotted against compound concentration. In these plots, the X-axis (compound concentration) was represented in a logarithmic scale. IC50 concentration was calculated as the half maximal (50%) inhibitory concentration (IC) for each compound using GraphPad Prism version 5.0 for Mac OSX (GraphPad Software, San Diego Calif., USA).

Data set [2] concerns A549. In words: CellTiter-Blue cell growth assay, A549. The format is cell-based, human. The note with it: A-549; 72 hours; Tables 11-13. How it is done:
as §1, §2, §3, §4, §5
For orientation: Alamar Blue is a resazurin reagent that responds to reducing activity.

Data set [3] deals with HCT-15. In words: CellTiter-Blue cell growth assay, HCT-15. The format is cell-based, human. The note with it: 72 hours, Tables 11-13. How it is done: as §1, §2, §3, §4, §5
Data set [4] deals with A-549 cells. Description: Isobolographic combination assay, A-549 cells. The format is cell-based, human. As to the method:
(§6) The dose-response relations of agents can be used to construct a model giving the expected effect of a combination. The combination of drugs A and B shall be termed (da,db) where da and db are doses of A and B. Effect is treated as a mathematical function, E(da,db). E is sometimes expressed as a fractional effect, then the survival fraction is S: S=1-E. Finally, Da and Db are doses of drugs A and B given separately, which produce an isoeffective response with the combination. Isoboles (iso-effect curves) can be constructed based on the assumption that there is no interaction between the drugs used in combination. The combination (da, db) is represented by a point on a graph that has axes representing doses of the individual drugs. […]
(§7) This ratio is also called g value and it used to determine the type of interaction. In this case the calculated isobole is concave. […]
(§8) The initial concentrations for each compound in each cell line were decided based on the calculated IC50 in a way that the IC50 for each drug fell within the concentration in the dilution series. […]
(§9) Following incubation of cells in Test Article-containing media, 10 μL of CellTiter-Blue® was added to each well and incubated with cells for up to 4 hours. Fluorescence was measured using a Spectramax Gemini XPS Fluorometer. All data were recorded and entered into Microsoft® Excel spreadsheets for interpretation. […]

Data set [5] concerns HCT-15 cells. In words: Isobolographic combination assay, HCT-15 cells. The format is cell-based, human. As to the method:
as §6, §7, §8, §9

For data set [6], the system named is MIAPaCa-2 cells. In words: Isobolographic combination assay, MIAPaCa-2 cells. The format is cell-based, human. As to the method: as §6, §7, §8, §9
Data set [7] concerns A-549, HCT-15 and MIAPaCa-2 cells. In words: CellTiter-Blue cell growth assay, three selected cell lines together. The format is cell-based, human. How it is done:
as §1, §2, §3, §4, §5

For data set [8], the system named is bFGF-induced angiogenesis. Description: AngioChamber assay (fibrous capsule wet weight). The note with it: female FvB mice, once daily Day 0-4, capsule excised Day 5, p<0.05. The format is in vivo. An excerpt: The AngioChamber™ assay utilises the normal physiological process of wound healing, to promote fibrous capsule formation around an implanted chamber (Wood, J. M., Bold, G., Buchdunger, E., Cozens, R., et al. PTK787/ZK 222584, a Novel and Potent Inhibitor of Vascular Endothelial Growth Factor Tyrosine Kinases, Impairs Vascular Endothelial Growth Factor-Induced Responses and Tumour Growth After Oral Administration. Cancer Research, 60 (8):2178-2189 (2000)). The inclusion of Basic Fibroblast Growth Factor (bFGF) in the chamber supports the fibrouse capsule formation while inducing blood vessel development. […] The fibrous capsule around the chamber was removed and the wet weight recorded. […] The vascularised fibrous capsule that had formed around each chamber was carefully removed and the wet weight recorded immediately. Angiogenesis inhibition by Test Articles (%) was calculated using the following formula: % Inhibition=[(A−B)/(A−C)×100] where A is the mean capsule weight from mice with implanted AngioChambers™ containing growth factor and treated with Vehicle Control (Group 2), B is the mean capsule weight from mice with implanted AngioChambers™ containing growth factor and treated with Test Article (Groups 3-5), and C is the mean capsule weight from mice with implanted AngioChambers™ without growth factor and treated with Vehicle Control (Group 1). […]

The nature of data set [9]: Body weight in the AngioChamber study. The format is in vivo. To be noted: female FvB mice; Day 0 to Day 5; 60 mg/kg p.o. daily. As to the method:
Body weight measurements were recorded for all animals on the first treatment day (Day 0) and then daily until the termination day of the study (Day 5).
Each animal's body weight was measured immediately prior to dosing. The volume of dosing solution administered to each animal was calculated and adjusted based on individual body weight.
All statistical calculations were performed using SigmaStat 3.0 (SPSS Australasia, North Sydney, NSW, Australia). A paired t-test was used to determine the significance in body weight change within a treatment group between Day 0 and the termination day of the study. […] Significant induction of the fibrous capsule formation by bFGF is considered to be essential to accept the study results. A One-Way Analysis of Variance (ANOVA) was performed on the capsule weight data at the end of the study. Where significant differences were found, All Pairwise Multiple Comparison and Multiple Comparison versus Control Group Procedures (Holm-Sidak Method) were performed. A p value of less than 0.05 was considered significant.

The conditions of data set [10]: background statement; cited from earlier work.

Trypsinogen: the “IC50 values” amounted to 280 µg/mL in data set [1], 230 µg/mL in data set [2] and 410 µg/mL in [3]. Also, the “Maximum Inhibition (%)” value in [1] came out at 82.3%; in data set [2] it was 75.7%; in data set [3], 77.2%. Further, the entries for the “type of interaction in combination with chymotrypsinogen (isobolographic, in words)” value in data set [4], in data set [5] and in data set [6] were “wide-range of synergistic interaction”, “non-antagonistic interaction” and “wide-range of synergistic interaction”, respectively. Also, the figures for the “type of interaction in combination with α-amylase (isobolographic, in words)” value in data set [4], in [5] and in data set [6] were “narrow-range type”, “non-synergistic interaction” and “wide-range type”, respectively. The “IC50 values, range over all three cell lines” value in [7] is 230 to 410 µg/mL.

For the compound `CNC(=O)c1cc(Oc2ccc(NC(=O)Nc3ccc(Cl)c(C(F)(F)F)c3)cc2)ccn1` [Sorafenib], the “angiogenesis (capsule wet weight) compared to the Induction Control (Vehicle Control with bFGF)” value in data set [8] (JBp1 and JBp1-DCM i.p., Sorafenib 60 mg/kg p.o.) was “significant reduction in angiogenesis”. The “angiogenesis (capsule wet weight) compared with JBp1 monotherapy” value in data set [8] is “significantly reduced angiogenesis”. In data set [9], the “body weight loss at termination of the study” value amounted to 5.6%.

On to `C[Se]CC[C@H](N)C(=O)O` [selenomethionine], for which the “toxic level (organic forms of selenium)” value in [10] was “about 3500 micrograms daily”.

These data come from patent publication US10350239B2, “Pharmaceutical composition for treating cancer comprising trypsinogen and/or chymotrypsinogen and an active agent selected from a selenium compound, a vanilloid compound and a cytoplasmic glycolysis reduction agent” (Propanc Pty Ltd, priority 2009, dated 2019).
